Consider 27 substances from PMC7367873, “Dissecting the sequence determinants for dephosphorylation by the catalytic subunits of phosphatases PP1 and PP2A” (Nature Communications, 2020).

The subject of assay [1] is GFP-14-3-3β and its binding proteins. The experiment in a line: GFP-14-3-3β co-IP with LC-MS/MS label-free quantification, untreated versus PP1c-treated. The arrangement: species or system human. As to the method: (§1) HeLa Kyoto cells expressing transiently transfected pEGFP(C1)-14-3-3β or pEGFP(C1) control plasmid, were incubated with 20 nM Calyculin A (# 9902 S, Cell Signaling Technology) for 12 min. Cells were washed twice on ice with cold PBS and after addition of 500 µL lysis buffer (100 mM NaCl, 10 mM Tris, 0.1% IGEPAL, 1 mM EDTA, 1 mM EGTA, 20 nM Calyculin A, 1x cOmplete Mini protease inhibitor cocktail (Sigma), 1 mM DTT, 1 mM MnCl2) cells were scraped from plates, lysed by 10 pushes through an injection needle (21 G, BD) and the insoluble fraction was pelleted by centrifugation (10 min, 10^4 rcf, 4 °C). Supernatants were then subjected to incubation with 1 µM recombinant phosphatase or buffer for 1 h at 30 °C. Next, we subjected samples to immunoprecipitation using α-GFP nanobodies covalently coupled to agarose beads (2 h, 4 °C, obtained from the EMBL PEPcore Core Facility). Beads were then washed three times with lysis buffer and samples were eluted in 1x LDS sample buffer (Thermo Fisher Scientific) by heating to 70 °C for 10 min.
(§2) The samples were then reduced with 25 mM dithiothreitol (10 min at 70 °C) and alkylated with 55 mM chloroacetamide (room temperature, 30 min, in the dark). Proteins were run on a precast 4–12% NuPAGE gel (ThermoFisher Scientific) for about 1 cm to concentrate the sample prior to in-gel tryptic digestion, which was performed according to the standard procedures. The peptides obtained were dried to completeness and resuspended in 12 µL of buffer A (0.1% FA), and 5 µL of sample were injected per MS measurement. The experiment was carried out in three independent replicates.
(§3) The samples were analyzed by LC-MS/MS on a Dionex Ultimate 3000 nano-HPLC coupled online to a Fusion Lumos Tribrid mass spectrometer (Thermo Fisher Scientific). Peptides were delivered to a trap column (75 µm × 2 cm, packed in-house with 5 µm C18 resin; Reprosil PUR AQ, Dr. Maisch) and washed using 0.1% FA at a flow rate of 5 µL/min for 10 min. Subsequently, peptides were transferred to an analytical column (75 µm × 45 cm, packed in-house with 3 µm C18 resin; Reprosil Gold) applying a flow rate of 300 nL/min and separated using a 60 min linear gradient from 4% to 32% LC solvent B (0.1% FA, 5% DMSO in ACN) in LC solvent A (0.1% FA in 5% DMSO). The eluate from the analytical column was sprayed via a stainless steel emitter (Thermo Fisher Scientific) at a source voltage of 2.1 kV into the mass spectrometer. The transfer capillary was heated to 275 °C. The Fusion Lumos was operated in positive ionization mode and data-dependent acquisition (DDA), automatically switching between MS1 and MS2 spectrum acquisition. Full scan MS1 spectra were recorded in the Orbitrap from 360 to 1300 m/z at a resolution of 60k (automatic gain control (AGC) target value of 4e5 charges, maximum injection time (maxIT) of 50 ms). Up to 20 peptide precursors were isolated (isolation window, 1.7 m/z; maximum injection time, 25 ms; and AGC value, 1e5), fragmented by high-energy collision-induced dissociation (HCD) using 30% normalized collision energy (NCE), and analyzed at a resolution of 15k in the Orbitrap. Precursor ions that were singly charged, unassigned, or with charge states >6+ were excluded. The dynamic exclusion duration of fragmented precursor ions was 20 s.
(§4) Peptide and protein identification and LFQ were performed using MaxQuant software (version 1.6.1.0)[64] by searching the data against all canonical protein sequences as annotated in the Swissprot reference database (human proteins only, 20193 entries, downloaded 22 March 2016, internally annotated with PFAM domains) using the embedded search engine Andromeda[65]. The MaxQuant search was performed using two variable modifications; oxidation of methionine and N-terminal protein acetylation. Carbamidomethylation on cysteines was specified as a fixed modification. Trypsin (Trypsin/P) was specified as the proteolytic enzyme with up to two allowed missed cleavage sites.

The next assay deals with GFP-14-3-3β. Nature of the assay: GFP-14-3-3β co-IP with LC-MS/MS, untreated GFP-14-3-3β versus GFP control (14-3-3 interactome). The format is binding, human. Here is the method: as §1, §2, §3, §4
Setting [2] is: GFP-14-3-3β co-IP LC-MS/MS, PP1 vs untreated, student's t-test, label-free quantification, 3 replicates each.
The mark [3] stands for this setting: GFP-14-3-3β co-IP LC-MS/MS, untreated vs GFP, student's t-test, label-free quantification, 3 replicates each.
Where [4] appears, read: pairwise comparison PP1 vs untreated.
[5] abbreviates: pairwise comparison untreated vs GFP.
[6] abbreviates: pairwise comparison PP1 vs untreated, student's t-test, 3 replicates each, LC-MS/MS label-free quantification.
[7] abbreviates: pairwise comparison untreated GFP-14-3-3β vs GFP, student's t-test, 3 replicates each, LC-MS/MS label-free quantification.
The mark [8] stands for this setting: PP1 vs untreated, LFQ intensities, 3 replicates each.
[9] abbreviates: untreated vs GFP, LFQ intensities, 3 replicates each.
The mark [10] stands for this setting: PP1 vs untreated, label-free quantification.
[11] abbreviates: untreated vs GFP, label-free quantification.
The mark [12] stands for this setting: PP1 vs untreated, LFQ intensities, replicates 1-3.
Where [13] appears, read: untreated vs GFP, LFQ intensities, replicates 1-3.

For IQGAP1, the “Difference (log2), PP1 vs untreated” value in assay [1] (setting [2]) was -0.359 log2. Moreover, the “Difference (log2), untreated vs GFP” value with GFP-14-3-3β (setting [3]) is recorded as 0.3872 log2.

Regarding XRCC5, the “Difference (log2), PP1 vs untreated” value in assay [1] (setting [4]) is reported as 0.08186 log2. Moreover, the “Difference (log2), untreated vs GFP” value with GFP-14-3-3β (setting [5]) is reported as -0.1105 log2.

Regarding WWTR1, the “Difference (log2), PP1 vs untreated” value in assay [1] (setting [6]) is -4.48 log2. The “Difference (log2), untreated vs GFP” value in the assay on GFP-14-3-3β (setting [7]) was determined as 5.399 log2.

Regarding PLEC, the “Difference (log2), PP1 vs untreated” value in assay [1] (log2 difference, pairwise comparison PP1 vs untreated, label-free quantification, 3 replicates each) is reported as 1.29. Moreover, the “Difference (log2), untreated vs GFP” value in the assay on GFP-14-3-3β (log2 difference, pairwise comparison untreated vs GFP, label-free quantification, 3 replicates each) is reported as -0.5388.

Take FAM98A: the “Difference (log2), PP1 vs untreated” value in assay [1] (setting [8]) was found to be 0.6235 log2. In addition, the “Difference (log2), untreated vs GFP” value in the assay with GFP-14-3-3β (setting [9]) came to 0.9941 log2.

On to MCM7, for which the “Difference (log2), PP1 vs untreated” value in assay [1] (setting [10]) came to 1.01 log2. The “Difference (log2), untreated vs GFP” value in the assay with GFP-14-3-3β (setting [11]) came out at 0.04561 log2.

Consider USP10, for which the “Difference (log2), PP1 vs untreated” value in assay [1] (setting [8]) was found to be 0.4174 log2. Besides, the “Difference (log2), untreated vs GFP” value in the assay on GFP-14-3-3β (setting [9]) is recorded as 1.017 log2.

On to PTBP1, for which, in assay [1] (setting [8]), the “Difference (log2), PP1 vs untreated” value is 0.7235 log2. The “Difference (log2), untreated vs GFP” value in the assay on GFP-14-3-3β (setting [9]) is recorded as -0.5421 log2.

Regarding NUP205, in assay [1] (setting [2]), the “Difference (log2), PP1 vs untreated” value is -0.6457 log2. Besides, the “Difference (log2), untreated vs GFP” value in the assay with GFP-14-3-3β (setting [3]) is listed as 1.662 log2.

Take ABCF1: the “Difference (log2), PP1 vs untreated” value in assay [1] (setting [8]) stood at 0.4338 log2. In addition, the “Difference (log2), untreated vs GFP” value in the assay with GFP-14-3-3β (setting [9]) worked out at 1.553 log2.

Take BRAF: the “Difference (log2), PP1 vs untreated” value in assay [1] (setting [12]) is given as -1.253 log2. Further, in the assay on GFP-14-3-3β (setting [13]), the “Difference (log2), untreated vs GFP” value is 7.361 log2.

Turning to PRPF8, the “Difference (log2), PP1 vs untreated” value in assay [1] (setting [2]) was -0.1499 log2. Also, the “Difference (log2), untreated vs GFP” value in the assay with GFP-14-3-3β (setting [3]) worked out at 2.212 log2.

Turning to EEF1G, in assay [1] (setting [8]), the “Difference (log2), PP1 vs untreated” value stood at 0.3367 log2. Besides, in the assay on GFP-14-3-3β (setting [9]), the “Difference (log2), untreated vs GFP” value is -0.3337 log2.

For CHD4, the “Difference (log2), PP1 vs untreated” value in assay [1] (setting [2]) is given as -0.3658 log2. In addition, the “Difference (log2), untreated vs GFP” value in the assay on GFP-14-3-3β (setting [3]) is given as 2.168 log2.

For the substance VIM, the “Difference (log2), PP1 vs untreated” value in assay [1] (setting [4]) turned out to be 0.1241 log2. Besides, the “Difference (log2), untreated vs GFP” value in the assay with GFP-14-3-3β (setting [5]) is given as 0.4109 log2.

For SUPT16H, the “Difference (log2), PP1 vs untreated” value in assay [1] (setting [4]) is listed as 0.1332 log2. Moreover, in the assay on GFP-14-3-3β (setting [5]), the “Difference (log2), untreated vs GFP” value stood at 0.2233 log2.

In the case of DNAJA1, the “Difference (log2), PP1 vs untreated” value in assay [1] (setting [4]) is reported as -0.1402 log2. For the same substance, in the assay on GFP-14-3-3β (setting [5]), the “Difference (log2), untreated vs GFP” value is reported as -0.4796 log2.

As to PCNT, in assay [1] (setting [2]), the “Difference (log2), PP1 vs untreated” value was -0.6422 log2. In addition, in the assay on GFP-14-3-3β (setting [3]), the “Difference (log2), untreated vs GFP” value was 1.216 log2.

TRIM29: the “Difference (log2), PP1 vs untreated” value in assay [1] (setting [2]) is -0.3516 log2. The “Difference (log2), untreated vs GFP” value in the assay with GFP-14-3-3β (setting [3]) stood at 0.4899 log2.

With DOCK7, in assay [1] (setting [6]), the “Difference (log2), PP1 vs untreated” value is on record as -5.0278 log2. Besides, in the assay with GFP-14-3-3β (setting [7]), the “Difference (log2), untreated vs GFP” value came out at 5.106 log2.

Turning to FYN, the “Difference (log2), PP1 vs untreated” value in assay [1] (setting [10]) is on record as 0.8257 log2. The “Difference (log2), untreated vs GFP” value in the assay with GFP-14-3-3β (setting [11]) was -1.633 log2.

With MTCL1, in assay [1] (setting [4]), the “Difference (log2), PP1 vs untreated” value is listed as 0.08295 log2. The “Difference (log2), untreated vs GFP” value with GFP-14-3-3β (setting [5]) worked out at 0.986 log2.

For the substance HEATR1, the “Difference (log2), PP1 vs untreated” value in assay [1] (setting [12]) was -1.168 log2. In addition, the “Difference (log2), untreated vs GFP” value in the assay with GFP-14-3-3β (setting [13]) was 3.268 log2.

As to TECR, the “Difference (log2), PP1 vs untreated” value in assay [1] (setting [8]) amounted to 0.5371 log2. The “Difference (log2), untreated vs GFP” value in the assay with GFP-14-3-3β (setting [9]) is on record as -0.1984 log2.

In the case of FBXO22, the “Difference (log2), PP1 vs untreated” value in assay [1] (setting [6]) was -4.621 log2. Also, the “Difference (log2), untreated vs GFP” value in the assay on GFP-14-3-3β (setting [7]) is 0.4281 log2.

MKI67: the “Difference (log2), PP1 vs untreated” value in assay [1] (setting [4]) came out at 0.1166 log2. Moreover, the “Difference (log2), untreated vs GFP” value in the assay on GFP-14-3-3β (setting [5]) is listed as 1.0535 log2.

Regarding RANBP2, in assay [1] (setting [12]), the “Difference (log2), PP1 vs untreated” value is -2.029 log2. For the same substance, in the assay on GFP-14-3-3β (setting [13]), the “Difference (log2), untreated vs GFP” value is given as 2.443 log2.
